Assay results from paper PMC9130998, “Paclitaxel binds and activates C5aR1: A new potential therapeutic target for the prevention of chemotherapy-induced peripheral neuropathy and hypersensitivity reactions” (Cell Death & Disease, 2022).

Biological target: T1, complement component 5a receptor 1 (C5aR1) (Homo sapiens, UniProt P21730)
T1 construct: recombinant human C5aR1 with a C-terminal c-Myc tag
T1 sequence (P21730 1-350): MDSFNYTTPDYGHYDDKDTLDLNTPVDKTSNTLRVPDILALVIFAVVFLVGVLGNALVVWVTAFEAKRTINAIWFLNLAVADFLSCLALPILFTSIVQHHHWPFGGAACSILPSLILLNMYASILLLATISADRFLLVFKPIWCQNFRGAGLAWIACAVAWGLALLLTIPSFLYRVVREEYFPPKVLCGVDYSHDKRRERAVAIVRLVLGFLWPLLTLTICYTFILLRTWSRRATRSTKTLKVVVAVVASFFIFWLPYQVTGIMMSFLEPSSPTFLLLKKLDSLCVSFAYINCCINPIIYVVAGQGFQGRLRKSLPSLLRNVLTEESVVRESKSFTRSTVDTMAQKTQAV
Experiment: SPR (BIAcore X100) on immobilized receptor, dose-dependent
Type: binding

CC(=O)O[C@@]12CO[C@@H]1C[C@H](O)[C@@]1(C)C(=O)[C@H](O)C3=C(C)[C@@H](OC(=O)[C@H](O)[C@@H](NC(=O)OC(C)(C)C)c4ccccc4)C[C@@](O)([C@@H](OC(=O)c4ccccc4)[C@H]21)C3(C)C [docetaxel]
SPR (BIAcore X100) on immobilized receptor, dose-dependent: similarly to paclitaxel, also docetaxel can bind C5aR1 receptor in a dose dependent way (Fig. S2A–D)
